Experimental data published in PubChem BioAssay (NCI).
Where “and” joins values, the source holds several entries; their conditions need not be identical. Equal entries are not always repeated.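 Following 48 hours of exposure in 96-well plates, responses at five concentrations were used to interpolate endpoints linearly. GI50 marks 50% less growth. The concentration for full growth arrest is given as TGI.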 *1 amine or outer side, *2 acyl side, *3 side chain or, on linkers, in order; H or OH if unused. Where a SMILES comes first, the peptide text is derived from it. Bridges are numbered along the chain shown (N, C = ends). [ ]: non-standard residue; d: D form. The star is where a group is joined. ξ: configuration not given here. Phe(3,5-F2) = N[C@@H](Cc1cc(F)cc(F)c1)C(=O)O; ξThr(3S) = C[C@H](O[*:3])C(N[*:1])C(=O)[*:2]; Pro(4R-Me) = C[C@H]1CN[C@H](C(=O)O)C1; Pip = O=C(O)[C@@H]1CCCCN1; X1 = Cc1ccc(N*)c(F)c1; CO = O=C([*:1])[*:2]

Experiments:
Test in all cases: growth of human tumour cells (NCI), 48 h
[1] = tested on: OVCAR-4 ovarian
[2] = tested on: K-562 leukemia
[3] = tested on: CCRF-CEM leukemia
[4] = tested on: OVCAR-5 ovarian
[5] = tested on: CAKI-1 renal
[6] = tested on: UACC-62 melanoma
[7] = tested on: IGROV1 ovarian
[8] = tested on: SK-MEL-28 melanoma
[9] = tested on: M14 melanoma
[10] = tested on: HCC-2998 colon
[11] = tested on: T-47D breast
[12] = tested on: NCI-H460 lung
[13] = tested on: OVCAR-8 ovarian
[14] = tested on: MCF7 breast
[15] = tested on: SK-MEL-5 melanoma
[16] = tested on: NCI-H226 lung
[17] = tested on: SF-295 CNS
[18] = tested on: UO-31 renal
[19] = tested on: SW-620 colon
[20] = tested on: PC-3 prostate
[21] = tested on: SF-539 CNS
[22] = tested on: MDA-MB-435
[23] = tested on: SN12C renal
[24] = tested on: HOP-92 NSCLC
[25] = tested on: SR leukemia
[26] = tested on: SF-268 CNS
[27] = tested on: MALME-3M melanoma
[28] = tested on: HL-60(TB) leukemia
[29] = tested on: HCT-15 colon
[30] = tested on: SNB-19 CNS
[31] = tested on: HOP-62 NSCLC
[32] = tested on: KM12 colon
[33] = tested on: NCI-H522 lung
[34] = tested on: SK-OV-3 ovarian
[35] = tested on: COLO 205 colon
[36] = tested on: RXF 393 renal
[37] = tested on: UACC-257 melanoma
[38] = tested on: MOLT-4 leukemia
[39] = tested on: DU-145 prostate
[40] = tested on: EKVX NSCLC
[41] = tested on: NCI/ADR-RES ovarian
[42] = tested on: A498 renal
[43] = tested on: HCT-116 colon
[44] = tested on: OVCAR-3 ovarian
[45] = tested on: HS 578T breast
[46] = tested on: 786-0 renal
[47] = tested on: ACHN renal
[48] = tested on: LOX IMVI melanoma
[49] = tested on: MDA-MB-231 breast
[50] = tested on: HT29 colon
[51] = tested on: SNB-75 CNS
[52] = tested on: RPMI-8226 leukemia
[53] = tested on: NCI-H23 lung
[54] = tested on: U251 CNS
[55] = tested on: TK-10 renal
[56] = tested on: SK-MEL-2 melanoma
[57] = tested on: BT-549 breast
[58] = tested on: A549 NSCLC

## Cc1ccc(NC(=O)N[C@@H](Cc2cc(F)cc(F)c2)C(=O)NC2C(=O)N3CCC[C@H]3C(=O)N3CCCC[C@H]3C(=O)N[C@@H](C)C(=O)N3C[C@H](C)C[C@H]3C(=O)O[C@H]2C)c(F)c1 (stereo partly drawn) ({X1-CO}-[Phe(3,5-F2)][ξThr(3S)]P[Pip]A[Pro(4R-Me)]; ester 2-C)
[1]
  GI50: 268 nM and 98.9 nM
  TGI: 50000 nM and > 100000 nM
[2]
  GI50: 134 nM and 43.7 nM
  TGI: 50000 nM and > 100000 nM
[3]
  GI50: 236 nM and 127 nM
  TGI: 50000 nM and 30100 nM
[4]
  GI50: 275 nM and 506 nM
  TGI: 9740 nM and 16000 nM
[5]
  GI50: 210 nM and 288 nM
  TGI: 50000 nM and > 100000 nM
[6]
  GI50: 247 nM and 451 nM
  TGI: 10700 nM and 19300 nM
[7]
  GI50: 2470 nM and 828 nM
  TGI: 40400 nM and > 100000 nM
[8]
  GI50: 467 nM and 709 nM
  TGI: 13800 nM and 18400 nM
[9]
  GI50: 297 nM and 245 nM
  TGI: 9860 nM and 16400 nM
[10]
  GI50: 255 nM and 390 nM
  TGI: 9170 nM and 10800 nM
[11]
  GI50: 222 nM and 314 nM
  TGI: 50000 nM and 18000 nM
[12]
  GI50: 220 nM and 222 nM
  TGI: 50000 nM and 21000 nM
[13]
  GI50: 194 nM and 64.6 nM
  TGI: 50000 nM and > 100000 nM
[14]
  GI50: 206 nM and 195 nM
  TGI: 50000 nM and 53500 nM
[15]
  GI50: 199 nM and 397 nM
  TGI: 7290 nM and 7900 nM
[16]
  GI50: 272 nM and 368 nM
  TGI: 40500 nM and 7750 nM
[17]
  GI50: 200 nM and 240 nM
  TGI: 11500 nM and 3580 nM
[18]
  GI50: 585 nM and 456 nM
  TGI: 50000 nM and > 100000 nM
[19]
  GI50: 433 nM and 483 nM
  TGI: 50000 nM and > 100000 nM
[20]
  GI50: 181 nM and 111 nM
  TGI: 50000 nM and > 100000 nM
[21]
  GI50: 696 nM and 709 nM
  TGI: 11100 nM and 16900 nM
[22]
  GI50: 230 nM and 117 nM
  TGI: 12300 nM and 14600 nM
[23]
  GI50: 171 nM and 303 nM
  TGI: 50000 nM and > 100000 nM
[24]
  GI50: 163 nM and 251 nM
  TGI: 9010 nM and 3050 nM
[25]
  GI50: 334 nM and 626 nM
  TGI: 12100 nM and 21600 nM
[26]
  GI50: 393 nM and 446 nM
  TGI: 50000 nM and 48600 nM
[27]
  GI50: 410 nM and 561 nM
  TGI: 17100 nM and 19100 nM
[28]
  GI50: 213 nM and 47.4 nM
  TGI: 8610 nM and 2050 nM
[29]
  GI50: 231 nM and 357 nM
  TGI: 10000 nM and 14900 nM
[30]
  GI50: 208 nM and 187 nM
  TGI: 50000 nM and > 100000 nM
[31]
  GI50: 235 nM and 322 nM
  TGI: 50000 nM and 46300 nM
[32]
  GI50: 533 nM and 384 nM
  TGI: 23500 nM and 24300 nM
[33]
  GI50: 211 nM and 119 nM
  TGI: 8500 nM and 10700 nM
[34]
  GI50: 225 nM and 360 nM
  TGI: 17400 nM and 7040 nM
[35]
  GI50: 124 nM and 156 nM
  TGI: 338 nM and 496 nM
[36]
  GI50: 2870 nM and 778 nM
  TGI: 17500 nM and 9160 nM
[37]
  GI50: 191 nM and 316 nM
  TGI: 7580 nM and 7520 nM
[38]
  GI50: 545 nM and 669 nM
  TGI: 25800 nM and 22900 nM
[39]
  GI50: 349 nM and 147 nM
  TGI: 50000 nM and > 100000 nM
[40]
  GI50: 252 nM and 377 nM
  TGI: 50000 nM and > 100000 nM
[41]
  GI50: 1730 nM and 1700 nM
  TGI: 50000 nM and > 100000 nM
[42]
  GI50: 5140 nM and 950 nM
  TGI: 41200 nM and 10200 nM
[43]
  GI50: 266 nM and 65.3 nM
  TGI: 7470 nM and 11100 nM
[44]
  GI50: 360 nM and 312 nM
  TGI: 44900 nM and 13200 nM
[45]
  GI50: 394 nM
  TGI: 50000 nM and 8560 nM
[46]
  GI50: 422 nM and 633 nM
  TGI: 50000 nM and > 100000 nM
[47]
  GI50: 321 nM and 528 nM
  TGI: 50000 nM and > 100000 nM
[48]
  GI50: 131 nM and 425 nM
  TGI: 6950 nM and 24400 nM
[49]
  GI50: 166 nM and 279 nM
  TGI: 1840 nM and 12800 nM
[50]
  GI50: 276 nM and 302 nM
  TGI: 10200 nM and 10100 nM
[51]
  GI50: 289 nM
  TGI: 50000 nM
[52]
  GI50: 119 nM and 38 nM
  TGI: 6250 nM and 1300 nM
[53]
  GI50: 228 nM
  TGI: 39400 nM
[54]
  GI50: 210 nM and 336 nM
  TGI: 50000 nM and > 100000 nM
[55]
  GI50: 385 nM and 791 nM
  TGI: 50000 nM and 42700 nM
[56]
  GI50: 198 nM and 164 nM
  TGI: 7580 nM and 921 nM
[57]
  GI50: 283 nM and 260 nM
  TGI: 12000 nM and 11800 nM
[58]
  GI50: 223 nM and 640 nM
  TGI: 50000 nM and > 100000 nM
